The first assay relates to angiotensin I (AI) challenge. The assay can be described thus: A1 Challenge Assay. In kind it is in vivo, male Sprague-Dawley rats. Particulars: dose 10 sc.
As to `CS(=O)(=O)N(CCCNC(=O)OCc1ccccc1)CC(=O)NC[C@H](CC1(C(=O)N[C@@H](Cc2ccc(O)cc2)C(=O)O)CCCC1)C(=O)O` [CbzNH SO2 CH3], the “A1 Chall. (% inhibition)” value was 100%.

The assay is the same for the next values; noted with them: dose 30 sc.
Take `COC(=O)N[C@@H](CCCCNC(=O)OCc1ccccc1)C(=O)NC[C@H](CC1(C(=O)N[C@@H](Cc2ccc(O)cc2)C(=O)O)CCCC1)C(=O)O` [CbzNH C(O) CH3 O]: the “A1 Chall. (% inhibition)” value came to 49%.
With `COC(=O)N[C@@H](CCCCN)C(=O)NC[C@H](CC1(C(=O)N[C@@H](Cc2ccc(O)cc2)C(=O)O)CCCC1)C(=O)O` [NH2 C(O) CH3 O], the “A1 Chall. (% inhibition)” value amounted to 92%.
Turning to `CN(C)C(=O)N[C@@H](CCCCNC(=O)OCc1ccccc1)C(=O)NC[C@H](CC1(C(=O)N[C@@H](Cc2ccc(O)cc2)C(=O)O)CCCC1)C(=O)O` [CbzNH C(O) (CH3)2 NH], the “A1 Chall. (% inhibition)” value was determined as 88%.
On the same count and under the same terms, as for `CS(=O)(=O)N(CCCN)CC(=O)NC[C@H](CC1(C(=O)N[C@@H](Cc2ccc(O)cc2)C(=O)O)CCCC1)C(=O)O` [NH2 SO2 CH3], the figure is 81%.

The target of the next assay is neutral endopeptidase (NEP, EC 3.4.24.11) (Homo sapiens, UniProt P08473). Nature of the assay: NEP inhibition in vitro (IC50). It is filed as biochemical.
Chain of neutral endopeptidase (NEP, EC 3.4.24.11) (P08473 whole entry, species assumed): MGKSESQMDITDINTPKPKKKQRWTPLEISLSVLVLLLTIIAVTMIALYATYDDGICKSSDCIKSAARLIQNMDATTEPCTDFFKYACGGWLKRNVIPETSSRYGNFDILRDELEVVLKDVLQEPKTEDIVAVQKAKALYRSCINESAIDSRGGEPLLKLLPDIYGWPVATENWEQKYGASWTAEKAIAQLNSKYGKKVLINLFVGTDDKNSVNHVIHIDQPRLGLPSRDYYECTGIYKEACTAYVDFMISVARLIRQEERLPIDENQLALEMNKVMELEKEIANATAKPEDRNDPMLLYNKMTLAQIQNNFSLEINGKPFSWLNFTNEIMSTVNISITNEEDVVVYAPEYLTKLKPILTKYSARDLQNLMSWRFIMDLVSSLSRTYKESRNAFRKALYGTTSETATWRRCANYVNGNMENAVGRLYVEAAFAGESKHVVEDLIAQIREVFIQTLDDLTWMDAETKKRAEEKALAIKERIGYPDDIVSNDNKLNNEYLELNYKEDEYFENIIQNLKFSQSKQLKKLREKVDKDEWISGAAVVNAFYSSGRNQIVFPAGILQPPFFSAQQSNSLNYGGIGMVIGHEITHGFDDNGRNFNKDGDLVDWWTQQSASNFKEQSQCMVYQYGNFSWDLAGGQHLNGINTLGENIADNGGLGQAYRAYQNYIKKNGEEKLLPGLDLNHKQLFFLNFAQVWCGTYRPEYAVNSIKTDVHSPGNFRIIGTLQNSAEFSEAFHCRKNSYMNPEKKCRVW
Conditions: not given
On the procedure: (§1) The ACE inhibitory activity of the compounds of the present invention is determined via in vitro tests using standard test procedures for ACE inhibition well known to those skilled in the art. Similarly, NEP inhibitory activity is determined via in vitro tests using standard test procedures for NEP inhibition well known to those skilled in the art.
As for `CS(=O)(=O)N(CCCNC(=O)OCc1ccccc1)CC(=O)NC[C@H](CC1(C(=O)N[C@@H](Cc2ccc(O)cc2)C(=O)O)CCCC1)C(=O)O` [CbzNH SO2 CH3], the IC50 – broadly, the midpoint of a concentration-inhibition curve – worked out at 2 nM.
For the compound `COC(=O)N[C@@H](CCCCNC(=O)OCc1ccccc1)C(=O)NC[C@H](CC1(C(=O)N[C@@H](Cc2ccc(O)cc2)C(=O)O)CCCC1)C(=O)O` [CbzNH C(O) CH3 O], the half-inhibitory concentration (IC50) worked out at 8 nM.
On the same count and under the same terms, the result for `CN(C)S(=O)(=O)N[C@@H](CCCCNC(=O)OCc1ccccc1)C(=O)NC[C@H](CC1(C(=O)N[C@@H](Cc2ccc(O)cc2)C(=O)O)CCCC1)C(=O)O` [CbzNH SO2 (CH3)2 NH] reads 1 nM; that for `COC(=O)N[C@@H](CCCCN)C(=O)NC[C@H](CC1(C(=O)N[C@@H](Cc2ccc(O)cc2)C(=O)O)CCCC1)C(=O)O` [NH2 C(O) CH3 O], 33 nM; that for `O=C(NCCCC[C@H](NC(=O)N1CCOCC1)C(=O)NC[C@H](CC1(C(=O)N[C@@H](Cc2ccc(O)cc2)C(=O)O)CCCC1)C(=O)O)OCc1ccccc1` [CbzNH C(O) drawing 38], 2 nM.
Same read-out and setting: as for `CN(C)C(=O)N[C@@H](CCCCNC(=O)OCc1ccccc1)C(=O)NC[C@H](CC1(C(=O)N[C@@H](Cc2ccc(O)cc2)C(=O)O)CCCC1)C(=O)O` [CbzNH C(O) (CH3)2 NH], the figure is 2 nM.
Same read-out and setting: the result for `NCCCC[C@H](NC(=O)N1CCOCC1)C(=O)NC[C@H](CC1(C(=O)N[C@@H](Cc2ccc(O)cc2)C(=O)O)CCCC1)C(=O)O` [NH2 C(O) drawing 39] reads 9 nM.
For `CS(=O)(=O)N(CCCN)CC(=O)NC[C@H](CC1(C(=O)N[C@@H](Cc2ccc(O)cc2)C(=O)O)CCCC1)C(=O)O` [NH2 SO2 CH3], the IC50 stood at 1 nM. Against the preceding compound, the IC50 is about 9-fold lower.
For `CN(C)S(=O)(=O)N[C@@H](CCCCN)C(=O)NC[C@H](CC1(C(=O)N[C@@H](Cc2ccc(O)cc2)C(=O)O)CCCC1)C(=O)O` [NH2 SO2 (CH3)2 NH], 32 nM corresponded to half-maximal inhibition (IC50).
In the case of `CN(C)C(=O)N[C@@H](CCCCN)C(=O)NC[C@H](CC1(C(=O)N[C@@H](Cc2ccc(O)cc2)C(=O)O)CCCC1)C(=O)O` [NH2 C(O) (CH3)2 NH], the half-inhibitory concentration (IC50) was determined as 1 nM.

The target of the next assay is angiotensin converting enzyme (ACE) (Homo sapiens, UniProt P12821). Nature of the assay: ACE inhibition in vitro (IC50). It is filed as biochemical.
Chain of angiotensin converting enzyme (ACE) (P12821 30-1306, species assumed): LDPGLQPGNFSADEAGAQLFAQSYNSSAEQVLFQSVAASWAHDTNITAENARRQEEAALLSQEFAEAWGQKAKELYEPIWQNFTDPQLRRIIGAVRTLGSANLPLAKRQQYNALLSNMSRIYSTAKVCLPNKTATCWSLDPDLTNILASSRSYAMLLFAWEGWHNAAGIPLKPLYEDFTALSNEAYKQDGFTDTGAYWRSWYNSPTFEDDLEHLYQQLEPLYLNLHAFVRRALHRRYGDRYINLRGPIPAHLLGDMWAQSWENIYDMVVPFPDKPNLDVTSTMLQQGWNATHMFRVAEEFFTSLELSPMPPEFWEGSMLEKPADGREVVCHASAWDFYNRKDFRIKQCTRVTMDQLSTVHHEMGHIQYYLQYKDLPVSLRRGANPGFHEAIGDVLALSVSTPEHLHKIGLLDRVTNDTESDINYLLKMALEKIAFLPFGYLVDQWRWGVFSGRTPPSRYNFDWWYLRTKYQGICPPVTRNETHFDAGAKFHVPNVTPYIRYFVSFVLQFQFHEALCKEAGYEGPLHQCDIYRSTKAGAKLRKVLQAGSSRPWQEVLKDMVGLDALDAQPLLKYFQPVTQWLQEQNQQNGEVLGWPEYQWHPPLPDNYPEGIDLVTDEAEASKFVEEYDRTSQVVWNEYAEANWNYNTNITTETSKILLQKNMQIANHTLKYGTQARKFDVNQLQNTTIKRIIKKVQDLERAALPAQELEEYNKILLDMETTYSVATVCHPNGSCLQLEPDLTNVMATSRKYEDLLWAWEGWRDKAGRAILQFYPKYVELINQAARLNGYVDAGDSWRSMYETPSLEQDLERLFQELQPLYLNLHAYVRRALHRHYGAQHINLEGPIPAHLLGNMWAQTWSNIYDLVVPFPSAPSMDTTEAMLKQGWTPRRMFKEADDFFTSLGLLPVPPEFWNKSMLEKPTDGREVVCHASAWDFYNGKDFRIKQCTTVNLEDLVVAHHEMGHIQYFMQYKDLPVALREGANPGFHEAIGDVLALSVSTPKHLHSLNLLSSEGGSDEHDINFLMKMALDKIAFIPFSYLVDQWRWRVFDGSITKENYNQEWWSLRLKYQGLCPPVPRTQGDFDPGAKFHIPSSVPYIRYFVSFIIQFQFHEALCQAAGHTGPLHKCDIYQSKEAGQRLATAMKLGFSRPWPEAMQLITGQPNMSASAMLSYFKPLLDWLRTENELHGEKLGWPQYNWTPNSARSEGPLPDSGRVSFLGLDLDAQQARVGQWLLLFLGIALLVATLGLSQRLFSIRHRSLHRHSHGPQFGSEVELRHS
Conditions: not given
As for the experimental part: as §1
Consider `CS(=O)(=O)N(CCCNC(=O)OCc1ccccc1)CC(=O)NC[C@H](CC1(C(=O)N[C@@H](Cc2ccc(O)cc2)C(=O)O)CCCC1)C(=O)O` [CbzNH SO2 CH3], for which the 50% inhibitory concentration (IC50) was determined as 40 nM.
On to `COC(=O)N[C@@H](CCCCNC(=O)OCc1ccccc1)C(=O)NC[C@H](CC1(C(=O)N[C@@H](Cc2ccc(O)cc2)C(=O)O)CCCC1)C(=O)O` [CbzNH C(O) CH3 O], for which the IC50 worked out at 15 nM.
On the same count and under the same terms, as for `CN(C)S(=O)(=O)N[C@@H](CCCCNC(=O)OCc1ccccc1)C(=O)NC[C@H](CC1(C(=O)N[C@@H](Cc2ccc(O)cc2)C(=O)O)CCCC1)C(=O)O` [CbzNH SO2 (CH3)2 NH], the figure is 1 nM; as for `COC(=O)N[C@@H](CCCCN)C(=O)NC[C@H](CC1(C(=O)N[C@@H](Cc2ccc(O)cc2)C(=O)O)CCCC1)C(=O)O` [NH2 C(O) CH3 O], 60 nM.
Still for that read-out and setting: the result for `O=C(NCCCC[C@H](NC(=O)N1CCOCC1)C(=O)NC[C@H](CC1(C(=O)N[C@@H](Cc2ccc(O)cc2)C(=O)O)CCCC1)C(=O)O)OCc1ccccc1` [CbzNH C(O) drawing 38] reads 2 nM; that for `CN(C)C(=O)N[C@@H](CCCCNC(=O)OCc1ccccc1)C(=O)NC[C@H](CC1(C(=O)N[C@@H](Cc2ccc(O)cc2)C(=O)O)CCCC1)C(=O)O` [CbzNH C(O) (CH3)2 NH], 450 nM.
As to `NCCCC[C@H](NC(=O)N1CCOCC1)C(=O)NC[C@H](CC1(C(=O)N[C@@H](Cc2ccc(O)cc2)C(=O)O)CCCC1)C(=O)O` [NH2 C(O) drawing 39], 8 nM corresponded to half-maximal inhibition (IC50). Against the preceding compound, the IC50 is about 56-fold lower.
The compound `CS(=O)(=O)N(CCCN)CC(=O)NC[C@H](CC1(C(=O)N[C@@H](Cc2ccc(O)cc2)C(=O)O)CCCC1)C(=O)O` [NH2 SO2 CH3] returned an IC50 of 6 nM.
For the compound `CN(C)C(=O)N[C@@H](CCCCN)C(=O)NC[C@H](CC1(C(=O)N[C@@H](Cc2ccc(O)cc2)C(=O)O)CCCC1)C(=O)O` [NH2 C(O) (CH3)2 NH], the IC50 came to 15 nM.

Source of the values: patent US5208236A, “N-(acylaminomethyl)glutaryl amino acids and use” (Schering Corporation, priority 1992, dated 1993).
